We go through 28 compounds from US20050197350A1, “Novel quinoline, tetrahydroquinazoline, and pyrimidine derivatives and methods of treatment related to the use thereof” (TAISHO PHARMACEUTICAL CO., LTD., priority 2003, published 2005).

The subject of this assay is MCH receptors. In words: MCH receptor activity class (method not given). As to conditions: class by percent of control at 10^-7 M or IC50.

Structures are written as SMILES.

On to `CN(C)c1nc(N[C@H]2CC[C@@H](NC(=O)Nc3cccc(Cl)c3Cl)CC2)nc2c1CCCC2` [compound 1795], for which the class was 2 (Class 2: The value of percent of control at 10^−7 M was from 40% to 60% or the value of IC′50 was from 50 nM to 200 nM.).
As to `Cc1ccc(NC(=O)N[C@H]2CC[C@@H](Nc3nc4c(c(N(C)C)n3)CCCC4)CC2)cc1` [compound 1796], the class was 2 (Class 2: The value of percent of control at 10^−7 M was from 40% to 60% or the value of IC′50 was from 50 nM to 200 nM.).
To `CC(C)c1cccc(C(C)C)c1NC(=O)N[C@H]1CC[C@@H](Nc2nc3c(c(N(C)C)n2)CCCC3)CC1` [compound 1797, N-(2,6-diisopropylphenyl)-N′-(cis-4-{[4-(dimethylamino)-5,6,7,8-tetrahydroquinazolin-2-yl]amino}cyclohexyl)urea] belongs 2 (Class 2: The value of percent of control at 10^−7 M was from 40% to 60% or the value of IC′50 was from 50 nM to 200 nM.).
To `Cc1ccc([N+](=O)[O-])c(NC(=O)N[C@H]2CC[C@@H](Nc3nc4c(c(N(C)C)n3)CCCC4)CC2)c1C` [compound 1798] belongs 3 (Class 3 The value of percent of control at 10^−7 M was more than 60% or the value of IC50 was more than 200 nM.); to `CN(C)c1nc(N[C@H]2CC[C@@H](NC(=O)Nc3c(Br)cc(F)cc3Br)CC2)nc2c1CCCC2` [compound 1799], 3 (Class 3 The value of percent of control at 10^−7 M was more than 60% or the value of IC50 was more than 200 nM.); to `CN(C)c1nc(N[C@H]2CC[C@@H](NC(=O)Nc3c(Cl)cccc3Cl)CC2)nc2c1CCCC2` [compound 1800], 3 (Class 3 The value of percent of control at 10^−7 M was more than 60% or the value of IC50 was more than 200 nM.).
Turning to `COc1ccc(C)cc1NC(=O)N[C@H]1CC[C@@H](Nc2nc3c(c(N(C)C)n2)CCCC3)CC1` [compound 1801], the class was 3 (Class 3 The value of percent of control at 10^−7 M was more than 60% or the value of IC50 was more than 200 nM.).
With `Cc1cccc([N+](=O)[O-])c1NC(=O)N[C@H]1CC[C@@H](Nc2nc3c(c(N(C)C)n2)CCCC3)CC1` [compound 1802], the class is recorded as 3 (Class 3 The value of percent of control at 10^−7 M was more than 60% or the value of IC50 was more than 200 nM.).
For the compound `CN(C)c1nc(N[C@H]2CC[C@@H](NC(=O)Nc3ccc(F)c(F)c3)CC2)nc2c1CCCC2` [compound 1803], the class is on record as 3 (Class 3 The value of percent of control at 10^−7 M was more than 60% or the value of IC50 was more than 200 nM.).
Take `CN(C)c1nc(N[C@H]2CC[C@@H](NC(=O)Nc3cc(F)cc(F)c3)CC2)nc2c1CCCC2` [compound 1804]: the class was 3 (Class 3 The value of percent of control at 10^−7 M was more than 60% or the value of IC50 was more than 200 nM.).
The figure for `CN(C)c1nc(N[C@H]2CC[C@@H](NC(=O)Nc3ccc(F)c(Cl)c3)CC2)nc2c1CCCC2` [compound 1805] is 3 (Class 3 The value of percent of control at 10^−7 M was more than 60% or the value of IC50 was more than 200 nM.); for `CC(=O)c1cccc(NC(=O)N[C@H]2CC[C@@H](Nc3nc4c(c(N(C)C)n3)CCCC4)CC2)c1` [compound 1806] it is 3 (Class 3 The value of percent of control at 10^−7 M was more than 60% or the value of IC50 was more than 200 nM.).
To `CC(=O)c1ccc(NC(=O)N[C@H]2CC[C@@H](Nc3nc4c(c(N(C)C)n3)CCCC4)CC2)cc1` [compound 1808] belongs 3 (Class 3 The value of percent of control at 10^−7 M was more than 60% or the value of IC50 was more than 200 nM.); to `CN(C)c1nc(N[C@H]2CC[C@@H](NC(=O)NC(=O)c3ccccc3)CC2)nc2c1CCCC2` [compound 1809], 3 (Class 3 The value of percent of control at 10^−7 M was more than 60% or the value of IC50 was more than 200 nM.).
The figure for `CN(C)c1nc(N[C@H]2CC[C@@H](NC(=O)NC(C)(C)C)CC2)nc2c1CCCC2` [compound 1810] is 3 (Class 3 The value of percent of control at 10^−7 M was more than 60% or the value of IC50 was more than 200 nM.); for `CN(C)c1nc(N[C@H]2CC[C@@H](NC(=O)Nc3cc(C(F)(F)F)cc(C(F)(F)F)c3)CC2)nc2c1CCCC2` [compound 1811] it is 3 (Class 3 The value of percent of control at 10^−7 M was more than 60% or the value of IC50 was more than 200 nM.).
Turning to `CN(C)c1nc(N[C@H]2CC[C@@H](NC(=O)NCc3ccccc3)CC2)nc2c1CCCC2` [compound 1812], the class is recorded as 3 (Class 3 The value of percent of control at 10^−7 M was more than 60% or the value of IC50 was more than 200 nM.).
Regarding `CN(C)c1nc(N[C@H]2CC[C@@H](NC(=O)Nc3ccc(Br)cc3)CC2)nc2c1CCCC2` [compound 1813], the class was 3 (Class 3 The value of percent of control at 10^−7 M was more than 60% or the value of IC50 was more than 200 nM.).
To `CN(C)c1nc(N[C@H]2CC[C@@H](NC(=O)Nc3cccc(Cl)c3)CC2)nc2c1CCCC2` [compound 1814] belongs 3 (Class 3 The value of percent of control at 10^−7 M was more than 60% or the value of IC50 was more than 200 nM.); to `CN(C)c1nc(N[C@H]2CC[C@@H](NC(=O)Nc3ccc(Cl)cc3)CC2)nc2c1CCCC2` [compound 1815], 3 (Class 3 The value of percent of control at 10^−7 M was more than 60% or the value of IC50 was more than 200 nM.); to `CN(C)c1nc(N[C@H]2CC[C@@H](NC(=O)NC3CCCCC3)CC2)nc2c1CCCC2` [compound 1816], 3 (Class 3 The value of percent of control at 10^−7 M was more than 60% or the value of IC50 was more than 200 nM.).
To `CN(C)c1nc(N[C@H]2CC[C@@H](NC(=O)Nc3cccc(C#N)c3)CC2)nc2c1CCCC2` [compound 1817] belongs 3 (Class 3 The value of percent of control at 10^−7 M was more than 60% or the value of IC50 was more than 200 nM.).
The figure for `CN(C)c1nc(N[C@H]2CC[C@@H](NC(=O)Nc3ccc(Cl)c(Cl)c3)CC2)nc2c1CCCC2` [compound 1818] is 3 (Class 3 The value of percent of control at 10^−7 M was more than 60% or the value of IC50 was more than 200 nM.); for `CN(C)c1nc(N[C@H]2CC[C@@H](NC(=O)Nc3ccc(Cl)cc3Cl)CC2)nc2c1CCCC2` [compound 1819] it is 3 (Class 3 The value of percent of control at 10^−7 M was more than 60% or the value of IC50 was more than 200 nM.).
Take `CN(C)c1nc(N[C@H]2CC[C@@H](NC(=O)Nc3c(F)cccc3F)CC2)nc2c1CCCC2` [compound 1820]: the class is on record as 3 (Class 3 The value of percent of control at 10^−7 M was more than 60% or the value of IC50 was more than 200 nM.).
Turning to `CN(C)c1nc(N[C@H]2CC[C@@H](NC(=O)Nc3cc(Cl)ccc3Cl)CC2)nc2c1CCCC2` [compound 1821], the class is reported as 3 (Class 3 The value of percent of control at 10^−7 M was more than 60% or the value of IC50 was more than 200 nM.).
To `CCOC(=O)CNC(=O)N[C@H]1CC[C@@H](Nc2nc3c(c(N(C)C)n2)CCCC3)CC1` [compound 1822] belongs 3 (Class 3 The value of percent of control at 10^−7 M was more than 60% or the value of IC50 was more than 200 nM.).
The figure for `CCOC(=O)c1ccc(NC(=O)N[C@H]2CC[C@@H](Nc3nc4c(c(N(C)C)n3)CCCC4)CC2)cc1` [compound 1823] is 3 (Class 3 The value of percent of control at 10^−7 M was more than 60% or the value of IC50 was more than 200 nM.).
